Reference: US9464060B2, “Compounds” (TAKEDA PHARMACEUTICAL COMPANY LIMITED, priority 2013, dated 2016)
pIC50: −log10 of the molar value.

Columns and labels:
human LPA1 receptors = human LPA1 receptors (Homo sapiens (Human), UniProt Q92633); test: In vitro LPA1 receptor assay (LPA-driven intracellular calcium release, FLIPR); assay type: cell-based; settings: RH7777 cells expressing human LPA1 receptors; LPA at EC80
Protocol: In Vitro LPA1 Receptor Assay
(§1) Engagement of the LPA1 receptor by its ligand, oleoyl-L-α-lysophosphatidic acid (LPA), leads to the release of intracellular stores of calcium into the cytoplasm mediated through a Gq-driven increase in inositol triphosphate (IP3) levels. Gq is a heterotrimeric G protein subunit that activates phospholipase C.
The ability of test compounds to prevent LPA-driven intracellular release of stored calcium from RH7777 cells expressing human LPA1 receptors was assayed by stimulating the cells with LPA in the presence of various test compounds to measure the test compounds' antagonism, i.e. activity in vitro.
(§2) Approximately 10,000 cells in normal culture medium (Dulbecco's Modified Eagle Media, 10% Foetal Calf Serum) were dispensed per assay well in a black clear bottom collagen coated 384 well plate (Beckton Dickinson). Cells were allowed to settle for thirty minutes at room temperature before being incubated overnight at 37° C., 5% CO2. Sixteen to twenty hours after dispensing, the cells were loaded with a calcium-sensitive fluorescent dye by replacing the culture medium with assay buffer (1× Hanks buffered saline, 25 mM HEPES, 0.1% w/v fatty acid free BSA (bovine serum albumin), pH7.4) containing 1.25 mM probenecid and 1× Calcium 5 Reagent (Molecular Devices). Cells were incubated at 37° C. for one hour to allow for dye uptake.
(§3) To test for antagonist activity, test compounds at a final concentration range between 0.32 nM-10 μM (diluted in assay buffer) were added to the assay wells and allowed to incubate for twenty five minutes. […] Ligand-dependent changes in intracellular calcium levels were determined by measuring changes in fluorescence of the dye over […] following excitation over […].

LPA5 receptor = LPA5 receptor (Homo sapiens (Human), UniProt Q9H1C0); test: In vitro LPA5 receptor assay (LPA-driven intracellular calcium release, FLIPR); assay type: cell-based; settings: RH7777 cells expressing human LPA5 receptors; LPA at EC90
Sequence of LPA5 receptor (Q9H1C0 whole entry): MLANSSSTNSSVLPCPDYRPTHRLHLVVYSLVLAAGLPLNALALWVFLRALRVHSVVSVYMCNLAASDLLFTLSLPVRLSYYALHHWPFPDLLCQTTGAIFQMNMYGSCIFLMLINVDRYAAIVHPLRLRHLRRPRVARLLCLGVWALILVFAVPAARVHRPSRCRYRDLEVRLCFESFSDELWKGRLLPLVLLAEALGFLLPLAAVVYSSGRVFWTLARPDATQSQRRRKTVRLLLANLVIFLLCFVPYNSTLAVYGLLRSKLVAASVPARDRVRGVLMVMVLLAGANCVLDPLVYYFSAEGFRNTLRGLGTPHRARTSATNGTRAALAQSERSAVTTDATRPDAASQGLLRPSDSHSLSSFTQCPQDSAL
Protocol: In Vitro LPA5 Receptor Assay
as §1, with “LPA5” for “LPA1”
The ability of test compounds to prevent LPA-driven intracellular release of stored calcium from RH7777 cells expressing human LPA5 receptors was assayed by stimulating the cells with LPA in the presence of various test compounds to measure the test compounds'antagonism, i.e. activity in vitro.
as §2, with “(Minimal Essential” for “(Dulbecco's Modified Eagle”, “poly-D-lysine” for “collagen”, “(Corning).” for “(Beckton Dickinson).”
as §3, with “fifteen” for “twenty five”

Sequence of human LPA1 receptors (Q92633 whole entry): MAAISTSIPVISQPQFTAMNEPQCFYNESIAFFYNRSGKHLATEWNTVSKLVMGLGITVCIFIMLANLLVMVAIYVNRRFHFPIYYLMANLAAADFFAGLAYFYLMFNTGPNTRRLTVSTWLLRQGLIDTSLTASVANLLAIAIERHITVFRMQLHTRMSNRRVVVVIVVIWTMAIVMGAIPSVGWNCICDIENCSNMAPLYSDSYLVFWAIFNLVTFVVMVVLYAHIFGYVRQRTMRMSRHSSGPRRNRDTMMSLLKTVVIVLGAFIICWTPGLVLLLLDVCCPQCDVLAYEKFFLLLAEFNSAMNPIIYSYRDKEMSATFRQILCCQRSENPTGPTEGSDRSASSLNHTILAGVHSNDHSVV

COc1ccccc1Oc1ccc(C(=O)N(Cc2ccc(C(=O)O)cc2)CC2CC2)c(F)c1 [Example 66, 4-((N-(Cyclopropylmethyl)-2-fluoro-4-(2-methoxyphenoxy)benzamido)methyl)benzoic acid]
pIC50 (human LPA1 receptors): 8.15 | pIC50 (LPA5 receptor): 8.30

O=C(O)c1ccc(CN(C[C@@H]2C[C@H]2c2ccccc2)C(=O)c2ccc(Oc3ccccc3F)cc2)cc1 (relative stereo) [Example 18, 4-((4-(2-Fluorophenoxy)-N-((trans-2-phenylcyclopropyl)methyl)-benzamido)methyl)benzoic acid]
pIC50 (human LPA1 receptors): 9.00 | pIC50 (LPA5 receptor): 8.70

O=C(O)c1ccc(CN(CC(F)(F)F)C(=O)c2ccc(Oc3ccccc3Cl)cc2)cc1 [Example 72, 4-((4-(2-Chlorophenoxy)-N-(2,2,2-trifluoroethyl)benzamido)methyl)benzoic acid]
pIC50 (human LPA1 receptors): 7.54 | pIC50 (LPA5 receptor): 7.38

COc1ccccc1Oc1ccc(C(=O)N(CCCc2cccc(F)c2)Cc2ccc(C(=O)O)cc2)cc1 [Example 33, 4-((N-(3-(3-Fluorophenyl)propyl)-4-(2-methoxyphenoxy)-benzamido)methyl)benzoic acid]
pIC50 (human LPA1 receptors): 9.52 | pIC50 (LPA5 receptor): 9.40

CCN(Cc1ccc(C(=O)O)cc1)C(=O)c1ccc(Oc2ccccc2C)cc1 [Example 73, 4-((N-Ethyl-4-(o-tolyloxy)benzamido)methyl)benzoic acid]
pIC50 (human LPA1 receptors): 6.92 | pIC50 (LPA5 receptor): 6.05

Cc1cccc(C)c1Oc1ccc(C(=O)N(CCC(C)C)Cc2ccc(C(=O)O)cc2)cc1 [Example 45, 4-((4-(2,6-Dimethylphenoxy)-N-isopentylbenzamido)methyl)benzoic acid]
pIC50 (human LPA1 receptors): 7.12 | pIC50 (LPA5 receptor): 7.00

O=C(O)c1ccc(CN(C[C@@H](O)Cc2ccccc2)C(=O)c2ccc(Oc3ccccc3F)cc2)cc1 [Example 19, (S)-4-((4-(2-Fluorophenoxy)-N-(2-hydroxy-3-phenylpropyl)benzamido)methyl)benzoic acid]
pIC50 (human LPA1 receptors): 8.15 | pIC50 (LPA5 receptor): 8.05

COc1ccccc1Oc1ccc(C(=O)N(CCC(F)(F)F)Cc2ccc(C(=O)O)cc2)cc1 [Example 64, 4-((4-(2-Methoxyphenoxy)-N-(3,3,3-trifluoropropyl)-benzamido)methyl)benzoic acid]
pIC50 (human LPA1 receptors): 8.05 | pIC50 (LPA5 receptor): 8.15

COc1ccccc1Oc1ccc(C(=O)N(Cc2ccc(C(=O)O)cc2)CC(C)C)cc1 [Example 30, 4-((N-Isobutyl-4-(2-methoxyphenoxy)benzamido)methyl)benzoic acid]
pIC50 (human LPA1 receptors): 7.92 | pIC50 (LPA5 receptor): 7.92

O=C(O)c1ccc(CN(CC2CC2)C(=O)c2ncc(Oc3ccccc3F)cn2)cc1 [Example 83, 4-((N-(Cyclopropylmethyl)-5-(2-fluorophenoxy)pyrimidine-2-carboxamido)methyl)benzoic acid]
pIC50 (human LPA1 receptors): 6.27 | pIC50 (LPA5 receptor): 6.46

O=C(O)c1ccc(CN(C[C@H](O)Cc2ccccc2)C(=O)c2ccc(Oc3ccccc3F)cc2)cc1 [Example 20, (R)-4-((4-(2-Fluorophenoxy)-N-(2-hydroxy-3-phenylpropyl)-benzamido)methyl)benzoic acid]
pIC50 (human LPA1 receptors): 7.92 | pIC50 (LPA5 receptor): 7.40

COc1ccc(F)cc1Oc1ccc(C(=O)N(Cc2ccc(C(=O)O)cc2)CC2CC2)cc1 [Example 79, 4-((N-(Cyclopropylmethyl)-4-(5-fluoro-2-methoxyphenoxy)benzamido)methyl)benzoic acid]
pIC50 (human LPA1 receptors): 7.03 | pIC50 (LPA5 receptor): 7.17

COc1ccccc1Oc1ccc(C(=O)N(Cc2ccc(C(=O)O)cc2)CC(F)(F)F)cc1 [Example 61, 4-((4-(2-Methoxyphenoxy)-N-(2,2,2-trifluoroethyl)benzamido)methyl)benzoic acid]
pIC50 (human LPA1 receptors): 8.40 | pIC50 (LPA5 receptor): 8.10

CCCCN(Cc1ccc(C(=O)O)cc1)C(=O)c1ccc(Oc2ccccc2F)cc1 [Example 75, 4-((N-Butyl-4-(2-fluorophenoxy)benzamido)methyl)benzoic acid]
pIC50 (human LPA1 receptors): 7.51 | pIC50 (LPA5 receptor): 7.66

Cc1ccccc1Oc1ccc(C(=O)N(Cc2ccc(C(=O)O)cc2)CC(F)(F)F)cc1 [Example 70, 4-((4-(o-Tolyloxy)-N-(2,2,2-trifluoroethyl)benzamido)methyl)benzoic acid]
pIC50 (human LPA1 receptors): 7.33 | pIC50 (LPA5 receptor): 6.85

COc1ccccc1Oc1ccc(C(=O)N(CCCc2ccccc2)Cc2ccc(C(=O)O)cc2)cc1 [Example 32, 4-((4-(2-Methoxyphenoxy)-N-(3-phenylpropyl)benzamido)-methyl)benzoic acid]
pIC50 (human LPA1 receptors): 8.70 | pIC50 (LPA5 receptor): 9.40

Cc1cccc(C)c1Oc1ccc(C(=O)N(Cc2ccccc2)Cc2ccc(C(=O)O)cc2)cc1 [Example 46, 4-((N-Benzyl-4-(2,6-dimethylphenoxy)benzamido)methyl)benzoic acid]
pIC50 (human LPA1 receptors): 7.72 | pIC50 (LPA5 receptor): 7.77

COc1cc(F)ccc1Oc1ccc(C(=O)N(Cc2ccc(C(=O)O)cc2)CC2CC2)cc1 [Example 68, 4-((N-(Cyclopropylmethyl)-4-(4-fluoro-2-methoxyphenoxy)benzamido)methyl)benzoic acid]
pIC50 (human LPA1 receptors): 7.89 | pIC50 (LPA5 receptor): 8.00

O=C(O)c1ccc(CN(CCCc2cccc(F)c2)C(=O)c2ccc(Oc3ccccc3F)cc2)cc1 [Example 17, 4-((4-(2-Fluorophenoxy)-N-(3-(3-fluorophenyl)propyl)benzamido)methyl)benzoic acid]
pIC50 (human LPA1 receptors): 9.40 | pIC50 (LPA5 receptor): 9.00

COc1ccccc1Oc1cnc(C(=O)N(Cc2ccc(C(=O)O)cc2)CC2CC2)nc1 [Example 84, 4-((N-(Cyclopropylmethyl)-5-(2-methoxyphenoxy)pyrimidine-2-carboxamido)methyl)benzoic acid]
pIC50 (human LPA1 receptors): 6.77 | pIC50 (LPA5 receptor): 7.04

O=C(O)c1ccc(CN(CC(F)(F)F)C(=O)c2ccc(Oc3ccccc3F)cc2)cc1 [Example 3, 4-((4-(2-Fluorophenoxy)-N-(2,2,2-trifluoroethyl)benzamido)-methyl)benzoic acid]
pIC50 (human LPA1 receptors): 7.46 | pIC50 (LPA5 receptor): 7.37

CCCN(Cc1ccc(C(=O)O)cc1)C(=O)c1ccc(Oc2ccc(F)cc2OC)cc1 [Example 80, 4-((4-(4-Fluoro-2-methoxyphenoxy)-N-propylbenzamido)methyl)benzoic acid]
pIC50 (human LPA1 receptors): 6.96 | pIC50 (LPA5 receptor): 7.35

COc1ccccc1Oc1ccc(C(=O)N(Cc2ccc(C(=O)O)cc2)CC(F)F)cc1 [Example 29, 4-((N-(2,2-Difluoroethyl)-4-(2-methoxyphenoxy)benzamido)-methyl)benzoic acid]
pIC50 (human LPA1 receptors): 7.47 | pIC50 (LPA5 receptor): 7.37

O=C(O)c1ccc(CN(CC2CC2)C(=O)c2ccc(Oc3ccccc3F)cn2)cc1 [Example 77, 4-((N-(Cyclopropylmethyl)-5-(2-fluorophenoxy)picolinamido)methyl)benzoic acid]
pIC50 (human LPA1 receptors): 7.07 | pIC50 (LPA5 receptor): 7.13

CCCCN(Cc1ccc(C(=O)O)cc1)C(=O)c1ccc(Oc2ccccc2OC)cc1 [Example 65, 4-((N-Butyl-4-(2-methoxyphenoxy)benzamido)methyl)benzoic acid]
pIC50 (human LPA1 receptors): 8.30 | pIC50 (LPA5 receptor): 8.40

O=C(O)c1ccc(CN(CCc2ccccc2)C(=O)c2ccc(Oc3ccccc3Cl)cc2)cc1 [Example 36, 4-((4-(2-Chlorophenoxy)-N-phenethylbenzamido)methyl)benzoic acid]
pIC50 (human LPA1 receptors): 7.62 | pIC50 (LPA5 receptor): 7.62

O=C(O)c1ccc(CN(CCC(F)(F)F)C(=O)c2ccc(Oc3ccccc3F)cc2)cc1 [Example 71, 4-((4-(2-Fluorophenoxy)-N-(3,3,3-trifluoropropyl)benzamido)methyl)benzoic acid]
pIC50 (human LPA1 receptors): 7.23 | pIC50 (LPA5 receptor): 7.08

CC(F)(F)CN(Cc1ccc(C(=O)O)cc1)C(=O)c1ccc(Oc2ccccc2F)cc1 [Example 74, 4-((N-(2,2-Difluoropropyl)-4-(2-fluorophenoxy)benzamido)methyl)benzoic acid]
pIC50 (human LPA1 receptors): 7.40 | pIC50 (LPA5 receptor): 7.01

CCCN(Cc1ccc(C(=O)O)cc1)C(=O)c1ccc(Oc2ccccc2F)cc1 [Example 60, 4-((4-(2-Fluorophenoxy)-N-propylbenzamido)methyl)benzoic acid]
pIC50 (human LPA1 receptors): 7.48 | pIC50 (LPA5 receptor): 7.22
